The text below walks through data of EPA's ToxValDB 9.5 (doi:10.2903/j.efsa.2014.3764).

Where only a bound is given, the exact number is not on record here.

For one series, the system named is Aphidius rhopalosiphi. As to the kind of experiment: LR50; higher = less toxic. The conditions noted are these: acute; duration: 48 hours; mortality.
The subject of the next series is Oncorhynchus mykiss. The conditions noted are these: chronic/long-term; duration: 87 days; mortality.
In the next series the test system is Anas platyrhynchos. The following applies: oral, feed.
Another series concerns Daphnia magna. The conditions noted are these: chronic/long-term; duration: 21 days; mortality.
The subject of another series is Apis mellifera. The following applies: acute, duration: 48 hours, mortality.
A further series relates to Tagia sp. The following applies: acute; duration: 14 days; mortality.
A further series deals with Canidae. The following applies: oral, Dog Other, clinical chemistry.
The next series deals with Cyprinus carpio. The conditions noted are these: acute; duration: 96 hours; mortality.
The subject of a further series is Colinus virginianus. The conditions noted are these: acute; oral; mortality.

Usually NOAEL stands for the highest tested level that showed no adverse finding. The compound `CCS(=O)(=O)c1nc2ccccn2c1S(=O)(=O)NC(=O)Nc1nc(OC)cc(OC)n1` [Sulfosulfuron] registered an LR50 in the series on Aphidius rhopalosiphi greater than 29.7 g/ha. Also, the NOEC in the series on Oncorhynchus mykiss was 100 mg/L; in the series with Daphnia magna it was 102 mg/L. Moreover, the NOEL in the series with Anas platyrhynchos (reproductive) was determined as 33.7 mg/kg-day. Besides, the LD50 was greater than 1350 mg/kg-day in the series on Anas platyrhynchos (short-term, mortality); greater than 25 µg/piece in the series with Apis mellifera (dermal); greater than 30 µg/piece with Apis mellifera (oral, unspecified); greater than 5000 mg/kg-day with Rattus norvegicus (acute, oral, mortality); greater than 2250 mg/kg-day in the series with Colinus virginianus. Further, the NOAEL stood at 24.4 mg/kg-day in the series on Rattus norvegicus (chronic, duration: 2 years, histopathology: nonneoplastic); 312 mg/kg-day with Rattus norvegicus (reproduction developmental, duration: 22 months, oral, diet, body weight); 100 mg/kg-day in the series with Canidae (chronic, duration: 1 years); 100 mg/kg-day in the series with Canidae (subchronic, duration: 90 days). In addition, the figures for the LC50 in the series on Tagia sp. and in the series with Cyprinus carpio were greater than 848 mg/kg and greater than 91 µg/mL, respectively.
